From patent publication US10590116B2, “3-indolyl furanoids as inhibitors of matrix metalloproteinase-9 for prevention of gastric ulcer and other inflammatory diseases” (Council of Scientific & Industrial Research, priority 2017, dated 2020)
Entries after “also recorded” stand apart in the source; their conditions may differ.

What was measured:
[1] = Toxicity studies through repeat daily dosing; type: in vivo
Protocol: FIG. 4 gives the In vivo toxicity test. Male and female BALB/c mice (n=10) received indicated doses of compound 5 by daily gavage. Control mice received vehicle (olive oil). Body weights were determined 4 days before the start of the treatment and then throughout the period of treatment until day 25. Data points represent mean body weight.
The purpose of this study was to assess the efficacy of prolonged oral compound 5 treatment and ascertaining adverse impact, if any. […] The female mice were, on an average, 4 g lighter than male mice which is consistent with the common sex-specific weight difference.

Myeloperoxidase (MPO) = assay: Myeloperoxidase assay in gastric tissue; type: in vivo; details: ulcerated mice, gastric tissue homogenate
Protocol: To understand the anti-inflammatory activity of compound 5, the inventors performed Myeloperoxidase (MPO) Assay in mouse of control, diseased and treated. Myeloperoxidase (MPO) activity in the mice gastric tissues was measured by calorimetric assay using guaiacol as the substrate. Briefly, gastric tissue homogenate prepared in 5 mM phosphate buffer was added to 1 mL of reaction buffer containing 0.5 mM H2O2 and 0.4 M guaiacol in 50 mM phosphate buffer, pH 7.4. The changes in the optical density per minute for tetraguaiacol were measured at 470 nm in a Shimadzu spectrophotometer. The results were expressed in units/gram gastric tissue (ε=26.6/mM/cm).
Myeloperoxidase (MPO) activity in the mouse gastric tissue homogenate was assayed colorimetrically using guaiacol and H2O2.

[2] = system: apoptosis of gastric mucosa; assay: TUNEL assay of gastric tissue sections; type: in vivo; details: indomethacin ulcerated mice
Source text: (§1) To understand the fine information about the physical condition (the level of damage and/or intactness) of cells tissues under observation, different tissue samples were fixed in 10% formalin and embedded in paraffin. Tissue sections were deparaffinized with xylene and rehydrated with descending alcohol series. The sections were cut using microtome, and stained with hematoxylin and eosin, or subjected to Terminal deoxynucleotidyl transferase-mediated dUTP Nick End Labeling (TUNEL) assay by using a in situ apoptosis detection kit. Fixation, permeabilization, and staining were carried out in exact parallel to ensure comparative significance among normal, ulcerated and compound 5 treated groups. […] Images at 10× and 40× magnification were captured using Camedia software (E-20P 5.0 Megapixel) and processed under Adobe Photoshop version 7.0 (FIG. 1B).
(§2) Tissue sections were stained with hematoxylin and eosin stain. Fixation, permeabilization, and staining were carried out in parallel in normal, ulcerated and compound 5 treated groups to ensure comparative significance among different treatment. TUNEL assay is used for detection and quantification of apoptosis in gastric tissues, based on labelling of DNA strand breaks. Terminal deoxynucleotidyl transferase-mediated dUTP Nick End Labeling (TUNEL) assay was performed by using an in situ apoptosis detection kit. […]

MMP-2 = target: T1, MMP-2 (Mus musculus, UniProt P33434); assay: Gelatin zymography of gastric tissue extract, MMP-2; type: in vivo, mice; details: pretreatment before indomethacin
T1 construct: Tissue extracts were electrophoresed in SDS-PAGE containing gelatin under nonreducing conditions; from tissue; host or cells: mouse stomach (gastric tissue) PBS / Triton X-100 extracts
T1 sequence (P33434 110-662): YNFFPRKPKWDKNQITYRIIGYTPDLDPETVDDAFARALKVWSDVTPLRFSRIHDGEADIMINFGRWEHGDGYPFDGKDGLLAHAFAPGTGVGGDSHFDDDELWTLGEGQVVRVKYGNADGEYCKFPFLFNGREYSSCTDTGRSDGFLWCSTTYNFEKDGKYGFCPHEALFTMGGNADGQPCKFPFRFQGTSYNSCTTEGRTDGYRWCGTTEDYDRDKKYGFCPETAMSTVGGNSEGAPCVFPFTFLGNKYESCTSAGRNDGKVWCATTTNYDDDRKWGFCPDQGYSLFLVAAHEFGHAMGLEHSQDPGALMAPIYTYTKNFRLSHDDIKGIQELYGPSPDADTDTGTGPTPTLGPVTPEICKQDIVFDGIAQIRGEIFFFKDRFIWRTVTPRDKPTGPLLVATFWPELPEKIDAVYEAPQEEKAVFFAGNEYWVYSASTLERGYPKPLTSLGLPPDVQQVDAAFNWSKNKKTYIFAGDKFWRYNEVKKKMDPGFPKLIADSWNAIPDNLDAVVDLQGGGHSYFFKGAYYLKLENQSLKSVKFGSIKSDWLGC
Protocol: (§3) The whole stomach (including fundic, body and pyloric parts) was washed with saline and used for extraction. Stomach except connective tissue layer (named as gastric tissue) were suspended in 10 mM phosphate buffer saline (PBS) containing protease inhibitors, minced and incubated for 10 min at 4° C. After centrifugation at 12,000 g for 15 min, the supernatant was collected as PBS extracts. The pellet was then extracted in lysis buffer (10 mM Tris-HCl pH 8.0, 150 mM NaCl, 1% Triton X-100 and protease inhibitors) and centrifuged at 12,000 g for 15 min to obtain TX extracts. Both PBS and TX extracts were preserved at −70° C. and used in future studies. Proteins were estimated either by Lowry method or by Bradford assay.
(§4) For the analysis of MMP-9 activity, tissue extracts were electrophoresed in 8% SDS-PAGE containing 1 mg/mL gelatin under nonreducing conditions. Equal amounts of tissue extracts (70 μg of total protein) were loaded in all the lanes. […] Quantification of zymographic bands was performed using densitometry linked to proper software (Lab Image, Kapelan Gmbh, Leipzig, Germany). […]
(§5) Tissue extracts were electrophoresed in SDS-PAGE containing gelatin under nonreducing conditions. […] Gelatinolytic activity came as negative staining and was quantified by Lab Image software.

[3] = system: lipid peroxide content (TBARS); assay: Measurement of lipid peroxidation (TBARS) in gastric tissue homogenate; type: in vivo; details: ulcerated mice
Protocol: The fundic stomach homogenate was used for measurement of lipid peroxide content as thiobarbituric acid reactive species (TBARS).
The cytosolic fraction from the gastric tissue homogenate was used for measurement of lipid peroxide content as thiobarbituric acid reactive species (TBARS). Briefly, 1 mL of the cytosolic fraction was allowed to react with 2 mL of TCA-TBA-HCl (15% TCA, 0.375% TBA, 0.25 N HCl) reagent, heated in a boiling water-bath for 15 min, cooled and centrifuged. The absorbance of the supernatant was measured for nano moles of TBARS at 535 nm (ε=1.5×10^5/M/cm).

[4] = system: gastric epithelium and submucosa; assay: Haematoxylin-eosin staining of gastric tissue sections; type: in vivo; details: 50 mg/kg body weight, indomethacin ulcerated mice
Source text: as §1, §2

MMP-9 = target: T2, MMP-9 (Mus musculus, UniProt P41245); assay: Gelatin zymography of gastric tissue extract, MMP-9; type: in vivo, mice; details: pretreatment before indomethacin
T2 construct: from tissue; host or cells: mouse stomach (gastric tissue) PBS / Triton X-100 extracts
T2 sequence (P41245 108-730): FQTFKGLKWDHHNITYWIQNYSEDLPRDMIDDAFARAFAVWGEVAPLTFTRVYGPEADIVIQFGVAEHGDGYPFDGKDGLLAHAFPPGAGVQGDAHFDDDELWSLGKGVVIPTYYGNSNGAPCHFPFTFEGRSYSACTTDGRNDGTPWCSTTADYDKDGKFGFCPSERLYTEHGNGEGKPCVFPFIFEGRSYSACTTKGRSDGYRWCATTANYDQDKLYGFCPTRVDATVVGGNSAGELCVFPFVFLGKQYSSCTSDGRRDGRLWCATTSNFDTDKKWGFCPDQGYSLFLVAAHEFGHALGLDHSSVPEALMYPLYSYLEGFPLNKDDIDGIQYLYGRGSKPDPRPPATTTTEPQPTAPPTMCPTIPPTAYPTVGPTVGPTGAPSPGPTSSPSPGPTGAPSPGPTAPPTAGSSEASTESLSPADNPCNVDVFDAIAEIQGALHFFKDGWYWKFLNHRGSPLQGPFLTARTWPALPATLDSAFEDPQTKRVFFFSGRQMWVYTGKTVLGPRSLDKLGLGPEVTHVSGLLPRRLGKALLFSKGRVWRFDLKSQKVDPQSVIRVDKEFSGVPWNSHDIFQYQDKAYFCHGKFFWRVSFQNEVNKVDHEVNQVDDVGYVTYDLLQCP
Protocol: as §3, §4, §5

[5] = 150 or 300 mg/kg body weight/day for 25 days, daily gavage

COc1cccc2[nH]cc(-c3cc(-c4ccccc4)oc3-c3ccccc3)c12 [compound 5, 4-methoxy-3-(2,5-diphenylfuran-3-yl)-1H-indole]
body weight, treated versus control groups [1, 5]: no differences in body weight
clinical signs of toxicity (lethargy, abdominal distension, fur loss, hunching) [1, 5]: no clinical signs of toxicity
toxicity, general statement ([1]; mouse, in vivo): non-toxic
Myeloperoxidase (Myeloperoxidase (MPO)): 9.13±0.33 units/gram tissue
Myeloperoxidase (Myeloperoxidase (MPO); listed as Compound 5): 9.13 ± 0.33 units/gram tissue
apoptosis of gastric mucosa (TUNEL) [2]: suppression of apoptosis
MMP-2 activity in gastric tissue extract (MMP-2): remained unaltered
Lipid peroxidation [3]: 0.47±0.15 nmol TBARS/mg tissue
Lipid peroxidation ([3]; listed as Compound 5): 0.47 ± 0.15 nmol TBARS/mg tissue
gastric injury, haematoxylin-eosin staining [4]: minimum injury and intact epithelial layer; also recorded: prevents indomethacin induced gastric injury
MMP-9 activity in gastric tissue extract (MMP-9): inhibits MMP-9 activity in gastric mucosa
MMP-9 activity in gastric tissue extract (MMP-9; listed as Compound 5): inhibited MMP-9 activity very significantly
